{"source": "patent US11564913B2", "about": "“Compositions and methods for treating cancer” (Children's Hospital Medical Center, priority 2019, dated 2023)", "key": {"[1]": {"tested_on": "active Cdc42 in MDA-MB-231 cells", "experiment": "Active GTPase pull-down (GST-PAK-GBD)", "type": "cell-based, human", "conditions": "0-3 μM, 1 h", "experimental": "(§1) FIG. 5: Cytoskeletal changes induced by IODVA1 treatment. IODVA1 inhibits lamellipodia and circular dorsal ruffle (CDR) formation in MDA-MB-231 cells and decreases Rac activation. (A) IODVA1 inhibits EGF-induced lamellipodia formation in MDA-MB-231 cells. MDA-MB-231 cells were plated on fibronectin-coated coverslips, serum starved for 4 h, incubated with the indicated concentrations of IODVA1 for 1 h, then EGF (50 ng/mL) stimulated, fixed and stained with Phalloidin Alexa Fluor 594 (F-Actin, pseudocolored red) and DAPI (nuclei, pseudocolored blue). […] The percentage of cells with CDRs was counted as the number of cells with CDRs normalized to the total number of cells in the field. Around 150 cells were counted per condition per experiment. Cells with multiple CDRs were counted only once. […] Levels of active Rac (RacGTP, % of control), active Cdc42 (Cdc42GTP, % of control) and active RhoA (RhoAGTP, % of control) were quantified using ImageJ and ImageLab and show combined data as mean±s.e.m. from at least 3 independent experiments. […]\n(§2) To confirm that IODVA1 interferes with Rac activation, applicants checked the levels of active Rac and its downstream effector PAK1/2. MDA-MB-231 cells were incubated with IODVA1 (0-3 μM) for 1 h and levels of GTP-bound active Rac were measured by GST-PAK-GBD pull-downs and quantified (FIG. 5C). […]"}, "[2]": {"tested_on": "active Rac (RacGTP) in MDA-MB-231 cells", "experiment": "Active GTPase pull-down (GST-PAK-GBD)", "type": "cell-based, human", "conditions": "0-3 μM, 1 h, dose-dependent", "experimental": "as §1, §2"}}}
{"smiles": "OC1(c2ccccn2)N=C(Nc2nc3ccccc3[nH]2)N=C1c1ccccn1", "note": "(centres unmarked) [IODVA1, (Z)-2-((1H-benzo[d]imidazol-2-yl)imino)-4,5-di(pyridin-2-yl)-2,5-dihydro-1H-imidazol-5-ol]", "values": [{"measurement": "levels of active Cdc42", "setting": "[1]", "value": "decreased but only at the highest IODVA1 concentration"}, {"measurement": "levels of active Rac", "setting": "[2]", "value": "significantly decreases"}]}
